Here are results for two compounds from ChEMBL document CHEMBL1201862, “PubChem BioAssay data set” (2004).

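Briefly, cells in 96-well plates were exposed to five compound concentrations for 48 h, and endpoints were estimated by linear interpolation. GI50 = concentration required for 50% inhibition of growth.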 Active and inactive are the calls of the source. Cut-off read from the data, not from the text of the source: active = GI50 up to about 1.1 µM and inactive = higher.

Test systems include DMS-273; DMS-114; KM-20L2; RXF 631; LXFL 529; DLD-1; XF498; SNB-78; HOP-18.
Holding throughout (assay): NCI tumour cell line growth inhibition, 48 h

As to `CS(=O)(=O)CSCSSCS(C)(=O)=O`, the GI50 in the test with DMS-273 is 25.9 µM (inactive); in the test with DMS-114, 27.3 µM (inactive); in the test with KM-20L2, 55.8 µM (inactive); with RXF 631, 32 µM (inactive); in the test with LXFL 529, 18.1 µM (inactive); with DLD-1, 30 µM (inactive). The GI50 in the test on XF498 is 32 µM (inactive); in the test with SNB-78, 49.4 µM (inactive); in the test on HOP-18, 37.6 µM (inactive).
Turning to `O=c1c2ccccc2n2nnc3ccc(NCCNCCO)c1c32`, the GI50 was 2.62 µM (inactive) in the test on DMS-273; 3.2 µM (inactive) in the test with DMS-114; 1.29 µM (inactive) in the test on KM-20L2; 1.85 µM (inactive) with RXF 631; 2.42 µM (inactive) in the test with LXFL 529; 2.19 µM (inactive) in the test with DLD-1. For the same compound, the GI50 with XF498 was 5.7 µM (inactive); with SNB-78, 7.71 µM (inactive); in the test with HOP-18, 0.183 µM (active).
